From patent US9381174B2, “Composition and method for exterminating animal parasite” (Mitsui Chemicals Agro, Inc., priority 2012, dated 2016)

Columns and labels:
[1] = tested on: Haemaphyxalis Longicornis; assay: Dry Film Insecticidal Test for Haemaphyxalis Longicornis; type: in vivo; details: 1 ml of 1 ppm acetone solution dried on 9 cm glass petri dish; young ticks; 48 hours of exposure; 25° C.; dead and anguish ticks
Protocol: 1 ml of an acetone solution that was prepared so that the compound was included at a concentration of 1 ppm was added dropwise to a glass petri dish having a diameter of 9 cm. After the addition, the acetone was air-dried for use in the test. About 10 young ticks were added. Then the dish was covered by a plastic film and sealed with a lid. The dish was placed in a constant temperature bath that was set at a temperature of 25° C., at a humidity of 100%, and with a light:dark cycle of 16:8.
After 48 hours of the exposure, the conditions of the ticks were examined and classified into “alive”, “dead (including a moribund condition)”, and “anguish”. The death rates after 48 hours are illustrated in Table 9.
The death rates were calculated as follows: Death Rate (%)=(Number of Dead and Anguish Ticks)/Total Number of Ticks×100

[2] = tested on: Ctenocephalides felis; assay: Insecticidal Test for Ctenocephalides felis (treated filter paper contact); type: in vivo; details: 50 μg/cm^2 on filter paper; emerged adult fleas; 72 hours of exposure; dead including moribund; in triplicate
Protocol: 0.2 mL of an acetone solution was added dropwise to a round filter paper having a diameter of 4.0 cm that were grasped with tweezers so that each of the compounds was included in an amount of 50 μg/cm^2. After the addition, the filter paper was dried at room temperature for 24 hours for use in the test.
Three 200 mL vials were used per compound. The filter paper treated with a test agent was placed tightly into a lid of the vials so that fleas might be contacted with the paper.
About 20 emerged adult fleas were added to each of the 200 mL vials using an aspirator. Then immediately, the vial was sealed with the lid into which the filter paper that was treated with the agent was tightly placed. It was examined if the fleas that were already dead were added. In a case in which dead fleas were found, the number of the dead fleas was subtracted from the total number.
The vials were turned upside down so that the fleas were always contacted with the filter paper. After 24, 48, and 72 hours of the exposure, the conditions of the fleas were examined and classified into “alive” and “dead (including a moribund condition)” to determine the death rates (in triplicate). The death rates after 72 hours are illustrated in Table 8.
The death rates were calculated as follows: Death Rate (%)=(Number of Dead Fleas including Moribund Fleas)/Total Number of Fleas×100

CN(CC(F)(F)F)C(=O)C(=O)Nc1cccc(C(=O)Nc2c(Cl)cc(C(F)(C(F)(F)F)C(F)(F)F)cc2C(F)(F)F)c1F [6-3]
Death Rate after 48 hours (%) [1]: 100%

CN(CC(F)(F)F)C(=O)C(=O)N(C)c1cccc(C(=O)Nc2c(Br)cc(C(F)(C(F)(F)F)C(F)(F)F)cc2C(F)(F)F)c1F [6-4]
Death Rate after 48 hours (%) [1]: 100%

CN(CC(F)(F)F)C(=O)C(=O)N(C)c1cccc(C(=O)Nc2c(I)cc(C(F)(C(F)(F)F)C(F)(F)F)cc2C(F)(F)F)c1F [6-5]
Death Rate after 48 hours (%) [1]: 100%

CN(CC(F)(F)F)C(=O)C(=O)Nc1cccc(C(=O)Nc2c(Br)cc(C(F)(C(F)(F)F)C(F)(F)F)cc2SC(F)(F)F)c1F [6-6]
Death Rate after 48 hours (%) [1]: 100%

CN(CC(F)(F)F)C(=O)C(=O)Nc1cccc(C(=O)Nc2c(Br)cc(C(F)(C(F)(F)F)C(F)(F)F)cc2[S+]([O-])C(F)(F)F)c1F (stereo not drawn) [6-7]
Death Rate after 48 hours (%) [1]: 100%

CN(CC(F)(F)F)C(=O)C(=O)Nc1cccc(C(=O)Nc2c(Br)cc(C(F)(C(F)(F)F)C(F)(F)F)cc2S(=O)(=O)C(F)(F)F)c1F [6-8]
Death Rate after 48 hours (%) [1]: 100%

CN(CC(F)(F)F)C(=O)C(=O)Nc1cccc(C(=O)Nc2c(I)cc(C(F)(C(F)(F)F)C(F)(F)F)cc2SC(F)(F)F)c1F [6-9]
Death Rate after 48 hours (%) [1]: 100%

CN(CC(F)(F)F)C(=O)C(=O)Nc1cccc(C(=O)Nc2c(I)cc(C(F)(C(F)(F)F)C(F)(F)F)cc2[S+]([O-])C(F)(F)F)c1F (stereo not drawn) [6-10]
Death Rate after 48 hours (%) [1]: 100%

CN(CC(F)(F)F)C(=O)C(=O)Nc1cccc(C(=O)Nc2c(I)cc(C(F)(C(F)(F)F)C(F)(F)F)cc2S(=O)(=O)C(F)(F)F)c1F [6-11]
Death Rate after 48 hours (%) [1]: 100%

CN(CC(F)(F)F)C(=O)C(=O)Nc1cccc(C(=O)Nc2c(Br)cc(C(F)(C(F)(F)F)C(F)(F)F)cc2OC(F)F)c1F [6-12]
Death Rate after 48 hours (%) [1]: 100%

CN(CC(F)(F)F)C(=O)C(=O)N(C)c1cccc(C(=O)Nc2c(Br)cc(C(F)(C(F)(F)F)C(F)(F)F)cc2OC(F)F)c1F [6-13]
Death Rate after 48 hours (%) [1]: 100%

CCN(C)C(=O)C(=O)N(C)c1cccc(C(=O)Nc2c(I)cc(C(F)(C(F)(F)F)C(F)(F)F)cc2OC(F)F)c1F [6-14]
Death Rate after 48 hours (%) [1]: 100%

CCN(C)C(=O)C(=O)N(C)c1cccc(C(=O)Nc2c(I)cc(C(F)(C(F)(F)F)C(F)(F)C(F)(F)F)cc2OC(F)F)c1F (stereo not drawn) [6-15]
Death Rate after 48 hours (%) [1]: 100%

CCN(C)C(=O)C(=O)N(C)c1cccc(C(=O)Nc2c(C)cc(C(F)(C(F)(F)F)C(F)(F)C(F)(F)F)cc2OC(F)F)c1F (stereo not drawn) [6-16]
Death Rate after 48 hours (%) [1]: 100%

CN(CC(F)(F)F)C(=O)C(=O)N(C)c1cccc(C(=O)Nc2c(I)cc(C(F)(C(F)(F)F)C(F)(F)C(F)(F)F)cc2SC(F)(F)F)c1F (stereo not drawn) [6-18]
Death Rate after 48 hours (%) [1]: 100%

CN(CC(F)(F)F)C(=O)C(=O)N(C)c1cccc(C(=O)Nc2c(I)cc(C(F)(C(F)(F)F)C(F)(F)C(F)(F)F)cc2S(=O)(=O)C(F)(F)F)c1F (stereo not drawn) [6-19]
Death Rate after 48 hours (%) [1]: 100%

CCN(C)C(=O)C(=O)N(C)c1cccc(C(=O)Nc2c(I)cc(C(F)(C(F)(F)F)C(F)(F)C(F)(F)F)cc2S(=O)(=O)C(F)(F)F)c1F (stereo not drawn) [6-20]
Death Rate after 48 hours (%) [1]: 100%

CN(CC(F)(F)F)C(=O)C(=O)Nc1cccc(C(=O)Nc2c(Br)cc(C(F)(C(F)(F)F)C(F)(F)F)cc2Br)c1F [Compound No. 4-66]
Death Rate after 48 hours (%) [1]: 100%

CCN(C)C(=O)C(=O)Nc1cccc(C(=O)Nc2c(Br)cc(C(F)(C(F)(F)F)C(F)(F)F)cc2OC(F)F)c1 [Compound No. 5-15]
Death Rate after 72 hours (%) [2]: 80.0%
Death Rate after 48 hours (%) [1]: 100%

CN(CCF)C(=O)C(=O)Nc1cccc(C(=O)Nc2c(Br)cc(C(F)(C(F)(F)F)C(F)(F)F)cc2C(F)(F)F)c1F [Compound No. 6-1, 2-fluoro-3-[N-(2-fluoroethyl)-N-methylaminoxalylamino]-N-[2-bromo-4-heptafluoroisopropyl-6-(trifluoromethyl)phenyl]benzamide]
Death Rate after 72 hours (%) [2]: 100%
Death Rate after 48 hours (%) [1]: 100%

CN(CCF)C(=O)C(=O)Nc1cccc(C(=O)Nc2c(I)cc(C(F)(C(F)(F)F)C(F)(F)F)cc2C(F)(F)F)c1F [Compound No. 6-2, 2-fluoro-3-[N-(2-fluoroethyl)-N-methylaminoxalylamino]-N-[2-iodo-4-heptafluoroisopropyl-6-(trifluoromethyl)phenyl]benzamide]
Death Rate after 72 hours (%) [2]: 100%
Death Rate after 48 hours (%) [1]: 100%
